The record followed here is the METLIN SMRT retention time set (Domingo-Almenara et al. 2019).

The series is described as follows: gradient 5% acetonitrile 3 min, to 50% in 2 min, to 85% in 15 min, held 3 min, 100 µL/min. Conditions: column: Zorbax Extend-C18 2.1 x 50 mm; eluents: water / acetonitrile, 0.1% formic acid. In a few lines: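 Mixtures of ~100 pure standards were chromatographed on a Zorbax Extend-C18 column (2.1 × 50 mm, 1.8 μm) at 100 μL/min using water and acetonitrile, each with 0.1% formic acid. Detection used a quadrupole time-of-flight mass spectrometer in positive and negative ionization mode, and data collection spanned 3 months. Retention time was obtained from adduct peaks picked computationally and each checked manually.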
Consider `COc1ccc(C(=O)C(C)OC(=O)C(C)N2C(=O)c3ccccc3C2=O)cc1` (stereo unspecified), for which the RP-LC retention time turned out to be 913 s.
`CCOc1ccc(NC(=O)C2CCN(S(=O)(=O)c3ccc4c(c3)sc(=O)n4CC)CC2)cc1` registered an RP-LC retention time of 924 s.
Molecule `O=C(C1CCC1)N1CCc2sc(S(=O)(=O)NCc3ccccc3)cc2C1` came in with an RP-LC retention time of 847 s.
`O=C(Cn1nc2c3ccccc3ncn2c1=O)Nc1ccc(F)cc1F`: the RP-LC retention time came out at 668 s.
Take `O=C(c1ccco1)N1CCN(c2ccc(-c3nc(-c4cccc(F)c4)no3)cn2)CC1`: the RP-LC retention time came out at 893 s.
The value for `CCOC(=O)COc1cc(-c2ccc(F)cc2)nc2ccc(NC(=O)COc3ccccc3)cc12` was 924 s; that for `COc1cccc(CNC(=O)c2nc3cccnc3n(CC(C)C)c2=O)c1` was 850 s; that for `O=C(CN1CCN(c2ccccn2)CC1)N1N=CCC1c1ccccc1` (stereo unspecified) was 573 s.
Molecule `CNC(=O)C1CN(C(=O)Nc2cc(OC)cc(OC)c2)CC12CCCC2` (stereo unspecified) showed an RP-LC retention time of 683 s.
For `CC(C)Oc1ccc(-c2noc(Cn3c(=O)n(-c4ccc(Cl)cc4)c(=O)c4sccc43)n2)cc1`, the RP-LC retention time is 1140 s.
The value for `O=C(COc1ccc(F)cc1)Nc1cnc(N2CCCCC2)nc1` was 931 s; that for `CCCS(=O)(=O)N1CC(F)(F)C[C@H]1c1nc(-c2cccnc2)no1` was 802 s.
The value for `CCOC(=O)c1c(C)n(Cc2ccco2)c2ccc(OC)cc12` was 1050 s; that for `Cc1cc(C(=O)N2CCC(c3noc(-c4cnccn4)n3)C2)nn1C` (stereo unspecified) was 641 s.
Next, `CCCCC(=O)N1CCN(C2CCN(CCC(C)C)C2=O)CC1` (stereo unspecified): 585 s; `COc1ccc(NC(=O)N2CCC(CCOc3cccnc3)CC2)cc1`: 630 s.
For `COC(=O)CC1CN=C(Nc2nc(C)c3ccccc3n2)NC1=O` (stereo unspecified), the RP-LC retention time worked out at 615 s.
Molecule `O=C(CN1CCc2nc(NC(=O)C3CC3)sc2C1)Nc1ccccc1C(F)(F)F` displayed an RP-LC retention time of 620 s.
The value for `CC(C)n1c(N2CCCN(C(=O)c3ccccn3)CC2)cc(=O)n(C(C)C)c1=O` was 712 s; that for `CCCNC(=O)C1CCN(c2ccc(SCC(=O)Nc3ccc(S(C)(=O)=O)cc3)nn2)CC1` was 593 s; that for `Cc1ccc(C)c(NC(=O)Cn2cccc2-c2nnc(-c3ccccc3)o2)c1` was 1020 s.
Next, `O=C(CSc1ccc(N2CCCC(C(=O)NC3CC3)C2)nn1)NCCc1ccc(Cl)cc1` (stereo unspecified): 666 s; `COC(=O)c1cccc(Nc2c(-c3cccc(Cl)c3)nc3cnccn23)c1`: 905 s.
Consider `COc1ccccc1NC(=O)NCCC1CCN(S(=O)(=O)c2ccccc2)CC1`, for which the RP-LC retention time stood at 910 s.
Turning to `COc1ccc(-c2ncc3c(n2)CCN(C(=O)Cc2ccc(OC)cc2Cl)C3)cc1`, the RP-LC retention time came out at 987 s.
The value for `Cc1sc2ccn(CC(C)C)c(=O)c2c1C(=O)N1CCN(C2CCCCC2)CC1` was 642 s.
`Cc1ccccc1-c1nc(-c2nnn(Cc3ccccc3)c2C)no1` showed an RP-LC retention time of 1120 s.
The value for `COc1ccc2[nH]c(=O)c(CCC(=O)NCc3ccncc3)cc2c1` was 574 s; that for `CCN1C=C(C(=O)OCc2cccc(Cl)c2)C(C)=NS1(=O)=O` was 1050 s.
`CC1CCCN(S(=O)(=O)c2ccc(-c3nnc(C4CCCC4)o3)o2)C1` (stereo unspecified) had an RP-LC retention time of 1080 s.
Molecule `O=C(NC1CC(=O)N(C2CC2)C1)C1CC=CCC1` (stereo unspecified) had an RP-LC retention time of 591 s.
Next, `CCn1c(=O)c(N2CCN(S(=O)(=O)c3ccc4c(c3)CCC4)CC2)nc2ccncc21`: 748 s; `Cc1cnn(Cc2c(C(=O)N3C[C@@H](C(N)=O)[C@H](c4nc(C)no4)C3)noc2C)c1`: 590 s.
The value for `Cc1ccc2c(Nc3cc(F)ccc3F)c(C(=O)OC(C)C)cnc2n1` was 771 s; that for `Cc1ccc2c(c1)N(Cc1ccccc1)N=C(C(=O)N1CCCCC1)S2(=O)=O` was 1010 s; that for `Cc1nc(-c2ccc3c(c2)CCN3C(=O)Cc2ccsc2)cs1` was 980 s.
In turn, `O=C(CN1C(=O)COc2ccc(C(=O)N3CCCC3)cc21)NCCc1ccc(Cl)cc1` displayed an RP-LC retention time of 765 s.
Next, `Cc1cccc(-c2noc(CN3N=NC4C(=O)N(c5ccc(F)cc5)C(=O)C43)n2)c1` (stereo unspecified): 1020 s; `COc1cccc2sc(N3CCc4ccccc4C3)nc12`: 1000 s.
Take `COC(=O)c1cc(S(=O)(=O)N2CCCC2C(=O)NCc2ccc(F)cc2)cn1C` (stereo unspecified): the RP-LC retention time was 799 s.
Next, `Cn1cc(CCN2CCC(C(=O)NCc3ccc(Cl)cc3)CC2)c2cccnc21`: 617 s; `CCSc1nc2ccc(NS(=O)(=O)c3ccc(F)cc3Cl)cc2s1`: 1110 s; `Cc1nc(CC(=O)NCc2ccc(C(F)(F)F)cc2)sc1C(=O)NCc1ccccc1`: 805 s.
On to `COc1ccc(C2(C(=O)N3C[C@H]4C[C@H](C3)[C@H]3CCCC(=O)N3C4)CCCCC2)cc1`, for which the RP-LC retention time came to 826 s.
Next, `Cn1c(=O)n([C@H]2CCN(C(=O)c3ccco3)C2)c2ncccc21`: 656 s; `CCCNC(=O)c1cccc(-c2nc3cccnc3n2CCC)c1`: 705 s.
The molecule `Cn1cnc2c(C(=O)Nc3ccc(F)cc3)nn(-c3ccc(Cl)cc3)c2c1=O` returned an RP-LC retention time of 956 s.
The value for `O=C(OC1C[C@@H]2CC3C[C@@H](C1)N2CC3=O)c1c[nH]c2ccccc12` (stereo partly specified) was 638 s; that for `O=C(Nc1ccc2cn[nH]c2c1)C1CC1` was 608 s.
The value for `COc1ccc(NC(=O)N2C[C@@H]3C[C@H]2C[C@@H]3NC(=O)c2ccccc2)c(OC)c1` was 647 s; that for `COc1ccccc1OCC(=O)NCc1ccsc1` was 747 s; that for `CC(C)C(=O)N1CCc2c(c(-c3nncn3C(C)C)nn2C)C1` was 639 s.
For the molecule `CC(C)c1cnn2c(NCc3ccccc3)cc(NCCCCCCN)nc12`, the RP-LC retention time is 653 s.
In the case of `CC(C)(C)C(=O)Nc1nnc(-c2cccs2)o1`, the RP-LC retention time is 652 s.
The molecule `Cn1ncc2c3ccccc3n(CC(=O)NCCc3cnc[nH]3)c2c1=O` yielded an RP-LC retention time of 583 s.
Next, `Cc1noc(C)c1CC(=O)NCCc1noc(C2CC2)n1`: 628 s.
Next, `c1ccc(CN2CCC3(CCCc4ccccc43)CC2)cc1`: 834 s; `C=CCNc1ncnc2ccc(Br)cc12`: 671 s; `CCc1nc2c(NC(=O)c3ccccc3)cccn2n1`: 792 s.
In the case of `CC(C)(C)C(=O)Nc1cnc(N2CCCCCC2)nc1`, the RP-LC retention time is 817 s.
`CCNC(=O)N1CCCC(c2cccc(C(=O)NC3CCCCCC3)c2)C1` (stereo unspecified) yielded an RP-LC retention time of 876 s.
